Measured values reported in publication PMC7440666, “Cryo-EM structure of the human concentrative nucleoside transporter CNT3” (PLoS Biology, 2020).

T1: hCNT3 (full-length wild-type) (Homo sapiens, UniProt Q9HAS3)
T1 construct: gene SLC28A3; full-length, C-terminal Strep-tag, codon-optimized cDNA, baculovirus/Sf9 expression, purified in DDM, homotrimer
T1 sequence (Q9HAS3 1-691): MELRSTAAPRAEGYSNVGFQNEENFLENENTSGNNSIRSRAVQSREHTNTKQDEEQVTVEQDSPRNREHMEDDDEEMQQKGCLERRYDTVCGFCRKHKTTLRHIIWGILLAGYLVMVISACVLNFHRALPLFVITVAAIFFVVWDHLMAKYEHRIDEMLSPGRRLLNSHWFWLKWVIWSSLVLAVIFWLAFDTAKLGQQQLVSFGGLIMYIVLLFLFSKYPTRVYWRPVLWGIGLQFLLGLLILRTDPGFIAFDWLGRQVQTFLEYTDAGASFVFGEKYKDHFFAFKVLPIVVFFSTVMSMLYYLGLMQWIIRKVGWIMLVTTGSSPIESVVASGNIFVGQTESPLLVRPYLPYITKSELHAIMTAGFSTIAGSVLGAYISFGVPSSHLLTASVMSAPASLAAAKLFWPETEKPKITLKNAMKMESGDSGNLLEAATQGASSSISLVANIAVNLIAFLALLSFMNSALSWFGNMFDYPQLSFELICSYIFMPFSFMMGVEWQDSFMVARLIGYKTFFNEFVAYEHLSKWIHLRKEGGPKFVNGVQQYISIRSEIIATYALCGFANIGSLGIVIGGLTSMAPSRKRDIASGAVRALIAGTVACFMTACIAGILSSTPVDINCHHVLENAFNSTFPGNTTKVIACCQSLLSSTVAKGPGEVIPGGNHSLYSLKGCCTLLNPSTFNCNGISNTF

T2: CNT3ins (Δ1–69) (Homo sapiens, UniProt Q9HAS3)
T2 construct: gene SLC28A3; lacks the 69 N-terminal residues, C-terminal Strep-tag, baculovirus/Sf9 expression, purified in DDM for ITC, homotrimer
T2 sequence (Q9HAS3 70-691): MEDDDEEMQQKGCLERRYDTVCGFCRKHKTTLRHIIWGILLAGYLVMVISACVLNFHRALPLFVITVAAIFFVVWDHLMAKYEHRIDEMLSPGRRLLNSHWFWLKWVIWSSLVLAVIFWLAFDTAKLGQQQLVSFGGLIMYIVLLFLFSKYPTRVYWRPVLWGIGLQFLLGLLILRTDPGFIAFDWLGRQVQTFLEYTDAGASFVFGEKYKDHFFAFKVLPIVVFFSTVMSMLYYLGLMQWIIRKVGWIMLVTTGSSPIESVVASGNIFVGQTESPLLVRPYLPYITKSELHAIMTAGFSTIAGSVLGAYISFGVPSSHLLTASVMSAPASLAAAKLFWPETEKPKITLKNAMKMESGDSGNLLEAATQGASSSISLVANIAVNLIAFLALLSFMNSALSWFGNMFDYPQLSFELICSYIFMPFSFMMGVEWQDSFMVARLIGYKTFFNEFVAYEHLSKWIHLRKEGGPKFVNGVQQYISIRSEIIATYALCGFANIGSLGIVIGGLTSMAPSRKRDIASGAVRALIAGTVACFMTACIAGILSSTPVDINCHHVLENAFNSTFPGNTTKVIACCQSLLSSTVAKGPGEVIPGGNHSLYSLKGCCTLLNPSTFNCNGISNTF

T3: hCNT3 (full-length wild-type) (Homo sapiens, UniProt Q9HAS3, E343A)
T3 construct: gene SLC28A3; full-length, C-terminal Strep-tag, codon-optimized cDNA, baculovirus/Sf9 expression, purified in DDM, homotrimer
T3 sequence (Q9HAS3 1-691 E343A): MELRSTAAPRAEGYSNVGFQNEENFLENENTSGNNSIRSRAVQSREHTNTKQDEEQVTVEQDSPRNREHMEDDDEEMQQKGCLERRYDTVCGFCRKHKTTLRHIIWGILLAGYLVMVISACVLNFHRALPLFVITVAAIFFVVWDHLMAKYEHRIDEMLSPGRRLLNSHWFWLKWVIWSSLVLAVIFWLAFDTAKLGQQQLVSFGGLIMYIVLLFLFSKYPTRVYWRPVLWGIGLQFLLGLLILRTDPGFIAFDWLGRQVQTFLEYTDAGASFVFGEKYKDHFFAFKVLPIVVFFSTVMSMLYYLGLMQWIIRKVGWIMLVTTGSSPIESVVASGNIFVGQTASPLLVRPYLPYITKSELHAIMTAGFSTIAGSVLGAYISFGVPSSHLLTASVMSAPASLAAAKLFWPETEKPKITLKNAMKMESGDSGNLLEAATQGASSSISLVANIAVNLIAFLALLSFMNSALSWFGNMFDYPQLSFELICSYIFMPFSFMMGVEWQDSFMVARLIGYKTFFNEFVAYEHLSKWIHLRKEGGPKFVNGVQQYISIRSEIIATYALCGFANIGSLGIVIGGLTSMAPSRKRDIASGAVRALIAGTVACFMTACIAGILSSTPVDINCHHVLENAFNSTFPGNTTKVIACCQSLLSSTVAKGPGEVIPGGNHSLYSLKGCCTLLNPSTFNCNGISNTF

T4: hCNT3 (full-length wild-type) (Homo sapiens, UniProt Q9HAS3, N565A)
T4 construct: gene SLC28A3; full-length, C-terminal Strep-tag, codon-optimized cDNA, baculovirus/Sf9 expression, purified in DDM, homotrimer
T4 sequence (Q9HAS3 1-691 N565A): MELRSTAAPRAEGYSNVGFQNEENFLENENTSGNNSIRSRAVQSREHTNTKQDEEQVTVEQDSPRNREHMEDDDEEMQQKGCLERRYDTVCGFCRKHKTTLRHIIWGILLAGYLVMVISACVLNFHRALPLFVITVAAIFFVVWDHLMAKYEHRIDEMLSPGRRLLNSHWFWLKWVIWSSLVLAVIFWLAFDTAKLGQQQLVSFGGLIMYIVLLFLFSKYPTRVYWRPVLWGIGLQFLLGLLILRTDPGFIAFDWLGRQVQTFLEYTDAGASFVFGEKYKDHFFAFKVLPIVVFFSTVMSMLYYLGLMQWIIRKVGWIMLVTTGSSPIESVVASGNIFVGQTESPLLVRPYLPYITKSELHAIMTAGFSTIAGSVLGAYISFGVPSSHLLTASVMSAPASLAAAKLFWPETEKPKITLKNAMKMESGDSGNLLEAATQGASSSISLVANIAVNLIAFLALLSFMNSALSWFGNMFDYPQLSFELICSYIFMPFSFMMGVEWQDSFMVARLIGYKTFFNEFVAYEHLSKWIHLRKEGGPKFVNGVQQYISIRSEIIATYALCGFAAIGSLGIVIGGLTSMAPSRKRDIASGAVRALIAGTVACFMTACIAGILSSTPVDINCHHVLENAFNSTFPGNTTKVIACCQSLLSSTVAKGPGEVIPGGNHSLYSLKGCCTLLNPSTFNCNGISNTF


Legend:
[1] = molecular target: T1, hCNT3 (full-length wild-type); experiment: isothermal titration calorimetry, one-site model; conditions: read-out: binding affinity
CNT3ins (Δ1–69) = molecular target: T2, CNT3ins (Δ1–69); experiment: isothermal titration calorimetry, one-site model; conditions: read-out: binding affinity
[2] = molecular target: T3, hCNT3 (full-length wild-type); experiment: isothermal titration calorimetry, one-site model; conditions: read-out: binding affinity
[3] = molecular target: T4, hCNT3 (full-length wild-type); experiment: isothermal titration calorimetry, one-site model; format: binding
[4] = molecular target: the molecule itself; experiment: cryo-EM structure; purified CNT3ins (Δ1–69) at 6 mg/ml in 25 mM Tris pH 8.0, 150 mM NaCl, 0.1% digitonin; nucleoside-free; reconstruction with C3 symmetry

Molecule	Kd [1] [µM]	Kd (CNT3ins (Δ1–69)) [µM]	Kd [2] [µM]	Kd [3] [µM]	stoichiometry N [4]
Cc1cn([C@H]2C[C@H](O)[C@@H](CO)O2)c(=O)[nH]c1=O [thymidine]	~603				
O=c1ccn([C@@H]2O[C@H](CO)[C@@H](O)[C@H]2O)c(=O)[nH]1 [uridine]	~325	~368	~1190	~280	
Nc1ccn([C@@H]2O[C@H](CO)[C@@H](O)[C@H]2O)c(=O)n1 [cytidine]	~260				
CNT3ins, the truncated isoform (Δ1–69) of human concentrative nucleoside transporter 3 (hCNT3) (domain or fragment, UniProt Q9HAS3 70-691, looked up, human concentrative nucleoside transporter 3 (hCNT3, SLC28A3), truncated isoform lacking the 69 N-terminal residues (Δ1–69); codon-optimised cDNA; density resolved for residues 100–614; also called CNT3ins (Δ1–69); SLC28A3; source: Sf9 insect cells (baculovirus, pFastBac1), purified (StrepTactin Sepharose, Superose 6 SEC) in digitonin or DDM) MEDDDEEMQQKGCLERRYDTVCGFCRKHKTTLRHIIWGILLAGYLVMVISACVLNFHRALPLFVITVAAIFFVVWDHLMAKYEHRIDEMLSPGRRLLNSHWFWLKWVIWSSLVLAVIFWLAFDTAKLGQQQLVSFGGLIMYIVLLFLFSKYPTRVYWRPVLWGIGLQFLLGLLILRTDPGFIAFDWLGRQVQTFLEYTDAGASFVFGEKYKDHFFAFKVLPIVVFFSTVMSMLYYLGLMQWIIRKVGWIMLVTTGSSPIESVVASGNIFVGQTESPLLVRPYLPYITKSELHAIMTAGFSTIAGSVLGAYISFGVPSSHLLTASVMSAPASLAAAKLFWPETEKPKITLKNAMKMESGDSGNLLEAATQGASSSISLVANIAVNLIAFLALLSFMNSALSWFGNMFDYPQLSFELICSYIFMPFSFMMGVEWQDSFMVARLIGYKTFFNEFVAYEHLSKWIHLRKEGGPKFVNGVQQYISIRSEIIATYALCGFANIGSLGIVIGGLTSMAPSRKRDIASGAVRALIAGTVACFMTACIAGILSSTPVDINCHHVLENAFNSTFPGNTTKVIACCQSLLSSTVAKGPGEVIPGGNHSLYSLKGCCTLLNPSTFNCNGISNTF					3
